From patent US20260167614A1, “IDENTIFICATION OF SMALL MOLECULES THAT RECRUIT AND ACTIVATE RNASE L” (UNIVERSITY OF FLORIDA RESEARCH FOUNDATION, INCORPORATED, priority 2022, published 2026)

Key:
Type in all cases: cell-based
[1] = test system: MDA-MB-231 cells modified with CRISPR and a control guide RNA; assay: Global proteomics analysis via LC-MS/MS
Description: RiboTAC 7 was then assessed for its ability to affect protein levels by deactivation of a miR-21-mediated cancer circuit, i.e., derepression of PDCD4. […] Proteome-wide analysis was also completed to study the effects of 7 and a locked nucleic acid (LNA) oligonucleotide that targets miR-21-5p on the proteome. The concentrations tested of both provided similar activity (5 nM of 7 and 100 nM of the LNA), as assessed by their effect on PDCD4 levels, ˜40% enhancement. […] Neither modality affected proteins that are direct targets of miRNA let-7b-5p, further supporting that RiboTAC 7 is selectively deactivating a miR-21-mediated cancer circuit in cells (FIG. 11C-11D).
Global proteomics analysis via LC-MS/MS. MDA-MB-231 cells modified with CRISPR and a control guide RNA were treated as described in “Cell Culture.” After treatment, the medium was removed, and the cells were washed with 1×DPBS. After washing, the cells were scraped from the culture plates, and the resulting suspension was centrifuged. Cell pellets were resuspended in 1×DPBS, and protein concentration was determined using a Pierce Micro BCA Protein Assay Kit (ThermoScientific). Urea (9 M in 100 mM NH4HCO3, pH 8) was added to a final concentration of 6 M to 30 μg lysate (15 μL prepared in 1×DPBS). […] Peptides were desalted over a self-packed C18 spin column, dried, and analyzed via LC-MS/MS. […]

[2] = test system: pre-miR-21; assay: RT-qPCR of pre-miR-21 in CRISPR-Control sgRNA MDA-MB-231 cells; details: 5 μM
Description: (§1) Two CRISPR-modified MDA-MB-231 cell lines with either a scrambled control guide RNA (“Control sgRNA”; RNase L is expressed) or with an RNase L-targeting guide RNA (“RNase L-Targeting sgRNA”; RNase L protein abundance is knocked down) were used to complete these studies.
(§2) MDA-MB-231 cells were treated with compound (0.1% DMSO final concentration) for 24 h, followed by removal of the compound-containing medium and redosing in growth medium for an additional 24 h (total treatment period of 48 h), with the exception of invasion assays in which the cells were treated overnight. For the time-course experiment, MDA-MB-231 cells were treated for the indicated lengths of time. MCF-10A cells, also used in invasion assays, were treated with compound overnight (0.1% DMSO final concentration).
(§3) RNA Isolation and Quantitative Real-Time Polymerase Chain Reaction (RT-qPCR). MDAMB-231 cells were cultured as described in “Cell Culture.” After compound treatment, total RNA was extracted using a Quick-RNA Miniprep Kit (Zymo) per the manufacturer's instructions. […] RT-qPCR was performed on a QuantStudio5™ Real-Time PCR Instrument (Applied Biosystems) using Power SYBR Green Master Mix (Applied Biosystems), and the resulting data were analyzed using the ΔΔCt method.

[3] = test system: MCF-10A cells; assay: Boyden chamber invasion assay, MCF-10A with mutant pre-miR-21; details: Dovitinib-binding site mutated
Description: (§4) The effect of the RiboTAC on a miR-21-associated invasive phenotype was next assessed. Treatment with 5 μM of 7 reduced the invasiveness of MDA-MB-231 cells, by ˜30% (p<0.05) (FIG. 4E-F). […] While forced expression of a mutant pre-miR-21 in which the Dovitinib-binding site is mutated also produced an invasive phenotype, the cells were insensitive to treatment with 7 (FIG. 12).
MCF-10A cells were first transfected with either a plasmid expressing pre-miR-21 (Addgene; catalog #21114) or a plasmid encoding a pre-miR-21 mutant (custom purchased from GenScript USA, Inc, FIG. 8) using jetPRIME (Polyplus), per the manufacturer's protocol (3.2 μg of plasmid per 60 mm dish). After transfection, cells (50,000 per insert) were seeded into the hanging inserts in serum free growth medium, with or without compound (0.1% final DMSO concentration). The assay was then completed as described for the MDA-MB-231 cells.

[4] = test system: MDA-MB-231 cells; assay: Boyden chamber invasion assay, MDA-MB-231; details: 5 μM
Description: as §4
Boyden Chamber Invasion Assay. Hanging cell culture inserts (for 24-well plates, 8.0 μm) were pre-coated with 0.3 mg/mL Matrigel (Corning, 356234). MDA-MB-231 cells (75,000 per insert) were then seeded into the hanging inserts in serum free growth medium, with or without compound (0.1% final DMSO concentration). The inserts were then placed into 24-well plates containing complete. After 16-24 h, the medium was removed, and the hanging inserts were washed with 1×DPBS. Cells were fixed for 20 min at room temperature with 4% (w/v) paraformaldehyde in 1×DPBS. The inserts were washed twice with 1×DPBS and then stained with 0.1% (w/v) crystal violet in 20% methanol (v/v) for 20 min. The inserts were then washed twice with Nanopure water and once with 1×DPBS. Cells on the surface of the Matrigel (noninvasive) were removed with cotton swabs and invading cells were imaged under a Leica DMI3000 B […] fluorescent microscope (the number of invasive cells in 4 fields of view per sample).

[5] = test system: mature miR-21; assay: RT-qPCR of mature miR-21 in CRISPR-Control sgRNA MDA-MB-231 cells; details: 5 μM, 48 h treatment, RNase L expressed
Description: as §1, §2, §3

CNC(=O)[C@H](c1ccccc1)N(C)Cc1ccc(-c2cccc(-c3sccc3NC(=O)CCOCCOCCOCCC(=O)NCCN3CCN(c4ccc5nc(-c6c(N)c7c(F)cccc7[nH]c6=O)[nH]c5c4)CC3)c2)cc1 [RiboTAC 7, (S)—N-(2-(4-(2-(4-amino-5-fluoro-2-oxo-1,2-dihydroquinolin-3-yl)-1H-benzo[d]imidazol-6-yl)piperazin-1-yl)ethyl)-3-(2-(2-(3-((2-(4′-((methyl(2-(methylamino)-2-oxo-1-phenylethyl)amino)methyl)-[1,1′-biphenyl]-3-yl)thiophen-3-yl)amino)-3-oxopropoxy)ethoxy)ethoxy)propanamide]
abundance of miR-21-repressed proteins (cumulative distribution analysis) ([1]; proteins encoded by mRNAs with a miR-21-5p binding site in 3′ UTR): statistically significant increase
proteins affected of the 3176 proteins detected ([1]; proteome-wide, 7 and LNA at concentrations of similar activity): 0.6%
reduction of pre-miR-21 abundance ([2]; 48 h treatment, RNase L expressed): ~30%
treatment time at which pre-miR-21 degradation is first detectable ([2]; time-course): 48 h
invasive phenotype induced by forced expression of mutant pre-miR-21 [3]: insensitive
reduction of invasiveness [4]: ~30%
reduction of mature miR-21 abundance [5]: ~40%
